Experiments:
[1] = molecular target: Epidermal growth factor receptor (Homo sapiens, UniProt P00533, L858R/T790M); test: Inhibition of EGFR L858R/T790M mutant (unknown origin) by mobility shift assay
NCI-H1975 [2] = test: Antiproliferative activity against human NCI-H1975 cells harboring EGFR L858R/T790M mutant assessed as inhibition of cell growth incubated for 72 hrs under hypoxia condition by SRB assay; format: functional, cell-based; conditions: NCI-H1975, 72 h
[3] = Ratio of IC50 for antiproliferative activity against human NCI-H1975 cells harboring EGFR L858R/T790M mutant under normoxia condition to IC50 for antiproliferative activity against human NCI-H1975 cells harboring EGFR L858R/T790M mutant under hypoxia condition; format: functional
[4] = Ratio of IC50 for antiproliferative activity against human HCC827 cells harboring EGFR del19 mutant under normoxia condition to IC50 for antiproliferative activity against human HCC827 cells harboring EGFR del19 mutant under hypoxia condition; format: functional
NCI-H1975 [5] = test: Antiproliferative activity against human NCI-H1975 cells harboring EGFR L858R/T790M mutant assessed as inhibition of cell growth incubated for 72 hrs under normoxia condition by SRB assay; format: functional, cell-based; conditions: NCI-H1975, 72 h
[6] = molecular target: Epidermal growth factor receptor (Homo sapiens, UniProt P00533); test: Inhibition of wild type EGFR (unknown origin) by mobility shift assay
HCC827 [7] = test: Antiproliferative activity against human HCC827 cells harboring EGFR del19 mutant assessed as inhibition of cell growth incubated for 72 hrs under normoxia condition by SRB assay; format: functional, cell-based; conditions: HCC827, 72 h
HCC827 [8] = test: Antiproliferative activity against human HCC827 cells harboring EGFR del19 mutant assessed as inhibition of cell growth incubated for 72 hrs under hypoxia condition by SRB assay; format: functional, cell-based; conditions: HCC827, 72 h
[9] = Selectivity index, ratio of IC50 for inhibition of wild type EGFR (unknown origin) to IC50 for inhibition of EGFR L858R/T790M mutant (unknown origin)

Sequence of Epidermal growth factor receptor (Homo sapiens, UniProt P00533, L858R/T790M) (P00533 25-1210 T790M/L858R limits assumed): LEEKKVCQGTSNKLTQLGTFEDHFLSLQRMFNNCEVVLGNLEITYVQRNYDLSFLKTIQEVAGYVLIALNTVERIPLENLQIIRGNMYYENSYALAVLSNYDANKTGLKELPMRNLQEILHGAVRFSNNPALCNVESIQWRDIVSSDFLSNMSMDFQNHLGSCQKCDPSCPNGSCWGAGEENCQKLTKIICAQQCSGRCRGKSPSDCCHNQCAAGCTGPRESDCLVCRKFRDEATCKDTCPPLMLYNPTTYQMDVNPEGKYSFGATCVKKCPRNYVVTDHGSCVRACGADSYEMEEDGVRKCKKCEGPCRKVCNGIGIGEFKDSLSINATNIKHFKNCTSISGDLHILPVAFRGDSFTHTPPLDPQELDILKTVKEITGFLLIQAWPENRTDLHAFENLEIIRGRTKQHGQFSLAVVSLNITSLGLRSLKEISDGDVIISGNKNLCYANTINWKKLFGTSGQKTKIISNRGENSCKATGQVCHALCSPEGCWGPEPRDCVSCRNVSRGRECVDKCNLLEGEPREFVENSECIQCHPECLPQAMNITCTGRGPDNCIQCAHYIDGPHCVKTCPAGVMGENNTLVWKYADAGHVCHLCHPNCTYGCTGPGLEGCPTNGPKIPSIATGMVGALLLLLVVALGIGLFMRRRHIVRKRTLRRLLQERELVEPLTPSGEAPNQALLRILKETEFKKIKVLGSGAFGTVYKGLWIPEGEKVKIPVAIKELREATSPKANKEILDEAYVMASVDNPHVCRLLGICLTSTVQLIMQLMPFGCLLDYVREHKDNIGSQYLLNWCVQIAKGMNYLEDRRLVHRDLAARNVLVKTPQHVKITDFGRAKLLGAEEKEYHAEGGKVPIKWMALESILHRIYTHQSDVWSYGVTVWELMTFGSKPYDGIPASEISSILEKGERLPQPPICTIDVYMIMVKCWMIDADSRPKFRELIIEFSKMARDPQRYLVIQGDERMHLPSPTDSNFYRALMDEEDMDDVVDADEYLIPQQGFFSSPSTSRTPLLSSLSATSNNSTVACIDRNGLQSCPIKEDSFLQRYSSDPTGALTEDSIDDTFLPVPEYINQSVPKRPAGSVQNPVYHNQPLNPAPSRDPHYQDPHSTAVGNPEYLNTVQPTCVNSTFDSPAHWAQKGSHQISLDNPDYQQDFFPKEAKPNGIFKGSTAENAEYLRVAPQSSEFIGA
Sequence of Epidermal growth factor receptor (Homo sapiens, UniProt P00533) (P00533 whole entry): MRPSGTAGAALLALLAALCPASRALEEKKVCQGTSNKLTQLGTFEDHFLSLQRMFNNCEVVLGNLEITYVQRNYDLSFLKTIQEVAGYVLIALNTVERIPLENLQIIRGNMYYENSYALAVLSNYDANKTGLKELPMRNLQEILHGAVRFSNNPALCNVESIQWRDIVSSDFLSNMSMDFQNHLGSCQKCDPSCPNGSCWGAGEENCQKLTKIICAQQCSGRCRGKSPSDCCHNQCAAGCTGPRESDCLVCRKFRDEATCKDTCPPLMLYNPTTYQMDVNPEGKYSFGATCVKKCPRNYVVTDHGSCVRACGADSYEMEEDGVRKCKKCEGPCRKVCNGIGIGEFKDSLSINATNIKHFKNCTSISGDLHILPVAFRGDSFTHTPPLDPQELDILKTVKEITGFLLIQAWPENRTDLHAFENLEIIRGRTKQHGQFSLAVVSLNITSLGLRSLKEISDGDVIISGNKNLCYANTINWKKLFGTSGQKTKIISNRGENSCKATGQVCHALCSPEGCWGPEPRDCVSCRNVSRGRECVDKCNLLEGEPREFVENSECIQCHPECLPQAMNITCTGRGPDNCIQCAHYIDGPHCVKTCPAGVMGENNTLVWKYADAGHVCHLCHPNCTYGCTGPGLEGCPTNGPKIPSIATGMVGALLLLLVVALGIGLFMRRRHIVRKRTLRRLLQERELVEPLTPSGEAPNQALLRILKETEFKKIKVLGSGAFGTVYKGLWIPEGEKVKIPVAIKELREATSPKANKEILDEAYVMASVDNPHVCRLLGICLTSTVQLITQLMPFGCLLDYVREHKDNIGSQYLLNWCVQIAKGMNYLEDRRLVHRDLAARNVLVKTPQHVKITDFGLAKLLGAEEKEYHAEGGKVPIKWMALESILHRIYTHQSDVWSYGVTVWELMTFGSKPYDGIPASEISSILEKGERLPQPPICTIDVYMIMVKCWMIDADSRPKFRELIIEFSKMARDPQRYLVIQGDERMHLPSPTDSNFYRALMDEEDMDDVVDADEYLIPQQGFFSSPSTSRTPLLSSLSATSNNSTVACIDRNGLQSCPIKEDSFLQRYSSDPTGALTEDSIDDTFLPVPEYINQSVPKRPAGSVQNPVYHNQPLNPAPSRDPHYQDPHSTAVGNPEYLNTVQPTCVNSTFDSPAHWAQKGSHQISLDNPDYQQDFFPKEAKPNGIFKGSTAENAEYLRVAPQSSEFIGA

SMILES | IC50 [1] [nM] | IC50 (NCI-H1975 [2]) [nM] | Ratio IC50 [3] | Ratio IC50 [4] | IC50 (NCI-H1975 [5]) [nM] | IC50 [6] [nM] | IC50 (HCC827 [7]) [nM] | IC50 (HCC827 [8]) [nM] | Ratio IC50 [9]
Cn1cc(-c2ccnc(Nc3cccc(C(=O)NCCOCCn4ccnc4[N+](=O)[O-])c3)n2)c2ccccc21 | 818 | – | – | – | – | – | – | – | –
Cn1cc(-c2ccnc(Nc3cc(OCCOCCn4ccnc4[N+](=O)[O-])ccc3F)n2)c2ccccc21 | 199 | 7.59 | 4.08 | 5.11 | 31 | 7660 | 32.1 | 6.28 | –
Cn1cc(-c2ccnc(Nc3ccc(OCCCCn4cnc([N+](=O)[O-])c4)c(F)c3)n2)c2ccccc21 | 829 | – | – | – | – | – | – | – | –
Cc1cc(Nc2nccc(-c3cn(C)c4ccccc34)n2)ccc1OCCOCCn1ccnc1[N+](=O)[O-] | 456 | – | – | – | – | 9200 | – | – | 20.2
